Source: paper PMC13201158, “A generative artificial intelligence approach for peptide antibiotic optimization” (Nature Machine Intelligence, 2026)
No end group written: not given here.

How the values were obtained:
[1] = system: A. baumannii ATCC 19606; test: Cytoplasmic membrane depolarization assay (DiSC3-5); assay type: cell-based, Acinetobacter baumannii; details: A. baumannii ATCC 19606, peptides at their MIC, 60 min; compared with polymyxin B and levofloxacin
Description: The cytoplasmic membrane depolarization assay was performed using the membrane-potential-sensitive dye DiSC3-5. A. baumannii ATCC 19606 in the mid-logarithmic phase were washed and resuspended at 0.05 OD ml^−1 (optical value at 600 nm) in HEPES buffer (pH 7.2) containing 20 mmol l^−1 of glucose and 0.1 mol l^−1 of KCl. DiSC3-5 (20 μmol l^−1) was added to the bacterial suspension (100 μl per well) for 15 min to stabilize the fluorescence, which indicates the incorporation of the dye into the bacterial membrane, and then the peptides were mixed 1:1 with the bacteria to a final concentration corresponding to their MIC values. Membrane depolarization was then followed by reading changes in the fluorescence (λex = 622 nm, λem = 670 nm) over time for 60 min. The relative fluorescence was calculated using the untreated control (buffer + bacteria + fluorescent dye) and polymyxin B (positive control) as baselines and the following equation was applied to reflect the percentage of difference between the baselines and the sample: Percentagedifference=100×(fluorescencesample−fluorescenceuntreatedcontrol)/fluorescenceuntreatedcontrol.

[2] = system: A. baumannii ATCC 19606; assay type: cell-based, Acinetobacter baumannii; details: ATCC 19606, 24 h
From the text: In this study, we used the following pathogenic bacterial strains: A. baumannii ATCC 19606, E. coli ATCC 11775, E. coli AIC221 [E. coli MG1655 phnE_2::FRT (control strain for AIC 222)], E. coli AIC222 [E. coli MG1655 pmrA53 phnE_2::FRT (polymyxin resistant; colistin-resistant strain)], K. pneumoniae ATCC 13883, P. aeruginosa PAO1, P. aeruginosa PA14, Staphylococcus aureus ATCC 12600, S. aureus ATCC BAA-1556 (methicillin-resistant strain), Enterococcus faecalis ATCC 700802 (vancomycin-resistant strain), and Enterococcus faecium ATCC 700221 (vancomycin-resistant strain). Pseudomonas Isolation (P. aeruginosa strains) agar plates were exclusively used in the case of Pseudomonas species. All the other pathogens were grown in Luria–Bertani (LB) broth and on LB agar. In all the experiments, bacteria were inoculated from one-isolated colony and grown overnight (16 h) in a liquid medium at 37 °C. On the following day, inoculums were diluted 1:100 in fresh media and incubated at 37 °C to mid-logarithmic phase.
Broth microdilution assays were conducted to establish the MIC for each peptide[53]–[55]. Peptides were added to untreated polystyrene 96-well microtitre plates and serially diluted twofold in sterile water, ranging from 0 to 64 μmol l^−1. A bacterial inoculum at a concentration of 10^6 CFU ml^−1 in LB medium was then mixed in a 1:1 ratio with the peptide solution. […] Each assay was performed in three independent replicates.

[3] = system: human embryonic kidney (HEK293T) cells; test: Cytotoxicity assay (MTT); assay type: cell-based; details: 24 h exposure, concentration range tested 4–64 μmol l^−1 (method: 8–128 μmol l^−1), three biological replicates
Description: One day before the experiment, an aliquot of 100 μl of the cells at 50,000 cells ml^−1 was seeded into each well of the cell-treated 96-well plates used in the experiment. The attached HEK293T cells were then exposed to increasing concentrations of the peptides (8–128 μmol l^−1) for 24 h. After the incubation period, we performed the 3-(4,5-dimethylthiazol-2-yl)-2,5-diphenyltetrazolium bromide tetrazolium reduction assay (MTT assay)[55]. The MTT reagent was dissolved at 0.5 mg ml^−1 in the medium without phenol red and was used to replace cell culture supernatants containing the peptides (100 μl per well). The samples were incubated for 4 h at 37 °C in a humidified atmosphere containing 5% CO2, yielding the insoluble formazan salt. The resulting salts were then resuspended in hydrochloric acid (0.04 mol l^−1) in anhydrous isopropanol and quantified by spectrophotometric measurements of absorbance at 570 nm. All assays were done as three biological replicates.

HKIKINTIKLKIKLKI [Lophiosin-1-3]
cytoplasmic membrane depolarization (DiSC3-5 fluorescence) [1]: effective depolarizers

IASLHARSIARLLKRWINVHQGLGLKW [Mammuthusin-2-7]
cytoplasmic membrane depolarization (DiSC3-5 fluorescence) [1]: highest depolarization activity within its family

KRKRGLKLATALSLNNKF [Mylodonin-2]
MIC, A. baumannii ATCC 19606 [2]: 64 µM

KTLKIIRLLF [Mammuthusin-3]
MIC, A. baumannii ATCC 19606 [2]: 32 µM

LRIKNHWIHFRVLAKALW [Hesperelin-3-9]
cytotoxicity against HEK293T cells [3]: generally non-toxic, except for hesperelin-3-9

RNLVRWVAGLKLKKKVIKIKVGIGRWANIK [Hydrodamin-3-9]
MIC, A. baumannii ATCC 19606 [2]: 8 µM
